# Read-outs that look alike come from different tables or passages of the source. Ends that are not written are not given here. Peptide text beside a SMILES is read from it. * marks the point of attachment. Dansyl = CN(C)c1cccc2c(S(=O)(=O)*)cccc12; Desaminotyrosyl = O=C(CCc1ccc(O)cc1)*
# Key:
# [1] = test system: abstinence-like signs induced by neuropeptide FF (1); conditions: cited from earlier work
# [2] = test system: opiate abstinence syndrome; conditions: 2 μg i.c.v.; cited from earlier work
# [3] = test system: naloxone-precipitated withdrawal symptoms; conditions: cited from earlier work
# [4] = Immobilized artificial membrane (IAM) chromatography; assay type: physicochemical
# Text: The purity of this new neuropeptide FF antagonist was confirmed by combustion analysis [Table 1] (data were within ±0.4% of calculated values) and ESI mass spectrometry (no impurities exceeding 1% based on relative ion abundance). […] The compounds were also characterized by immobilized artificial membrane (IAM) chromatography, a method that furnishes capacity factors whose logarithm generally correlates with in vivo absorption [Pidgeon, et al., J. Med. Chem. 1995, 38, 590-594] including penetration across the BBB [Reichel, et al., Pharm. Res. 1998, 15, 1270-1274].
# The combinatorial libraries herein were prepared on a SynPep (Dublin, Calif.) multiple peptide synthesizer. A Synthor 2000, Peptide International (Louisville, Ky.) instrument was used for the preparation of the individual compounds by Fmoc chemistry. Immobilized artificial membrane (IAM) chromatography was performed on a system that included a model SP 8810 precision isocratic pump, an SP 8880 autosampler with a 20-μL injection loop, an SP 8450 variable wavelength UV/VIS detector operated at 254 nm, and SP 4290 computing integrator (all from ThermoSeparation|SpectraPhysics, Fremont, Calif.). RP-HPLC purification was done on a system composed of an SP 200 binary gradient pump (ThermoSeparation), a Rheodyne (Cotati, Calif.) model 7125 injector valve equipped with a 5-mL sample loop, and an SP 100 UV/VIS detector (ThermoSeparation) operated at 210 nm. Electrospray ionization (ESI) and tandem mass spectra were obtained on a quadrupole ion trap instrument (LCQ, Finnigan MAT, San Jose, Calif.). NMR spectra were recorded on Bruker AVANCE instruments (Bremen, Germany). Resonance frequencies were 500 and 600 MHz for ^1H and 127 MHz for ^13C. The samples were dissolved in H2O/D2O (8/2, v/v).
# [5] = molecular target: receptor labeled by the radioiodinated analogue of 1 (4, [125I]-YLFQPQRF-NH2); neuropeptide FF receptor; assay: Competitive radioligand binding against 4 ([125I]Y8F-amide); conditions: for Ki: competition against 4; for Relative Binding Index (RBI): mixture-based positional scanning, difference from averaged radioligand displacement of whole library (0), about 80 a.u. = 10-fold change in Ki
# [6] = molecular target: receptor labeled by the radioiodinated analogue of 1 (4, [125I]-YLFQPQRF-NH2); neuropeptide FF receptor; conditions: CNS membrane preparation, literature value; cited from earlier work
# [7] = after systemic administration; cited from earlier work
Compound,Relative Binding Index (RBI) [5] [a.u.],further results
"Phe-Leu-Phe-Gln-Pro-Gln-Arg-Phe-NH2 (FLFQPQRF-NH2) [Compound 1, endogenous neuropeptide FF]",,quasi-morphine-abstinence syndrome (QMAS) in opiate-naive rats ([1]; 15 μg i.c.v.): induces; opiate abstinence syndrome in morphine-dependent rats [2]: precipitates
Pro-Phe-Arg(Tic)-NH2 [Compound 3a],,potency (or efficacy) in the pharmacological tests employed ([3]; compared with 3): less than that of 3; naloxone-precipitated withdrawal symptoms in morphine-dependent rats ([3]; systemic administration): attenuated
"CN(C)c1cccc2c(S(=O)(=O)N3CCCC3C(=O)NC(CCC(N)=O)C(=O)NC(CCCNC(=N)N)C(N)=O)cccc12 (stereo not drawn) [Compound 3, Dansyl-Pro-Gln-Arg-NH2, reference compound] (Dansyl-Pro-Gln-Arg-NH2; configuration not given here)",−34,"naloxone-precipitated withdrawal symptoms in morphine-dependent rats ([3]; administered subcutaneously): blunted; kIAM′ (IAM capacity factor) [4]: 5.9; log kIAM′ [4]: 0.77; Ki [5]: 13600 nM; QMAS induced by 1 ([1]; rat, in vivo): dose-dependently antagonized; inhibition constant (Ki) [6]: micromolar range"
Desaminotyrosyl-Phe-Leu-Phe-Gln-Pro-Gln-Arg-NH2 (Desaminotyrosyl-FLFQPQR-NH2; SMILES CC(C)C[C@H](NC(=O)[C@H](Cc1ccccc1)NC(=O)CCc1ccc(O)cc1)C(=O)N[C@@H](Cc1ccccc1)C(=O)N[C@@H](CCC(N)=O)C(=O)N1CCC[C@H]1C(=O)N[C@@H](CCC(N)=O)C(=O)N[C@@H](CCCNC(=N)N)C(N)=O) [Compound 2],,abstinence signs upon naloxone challenge in morphine-dependent animals ([3]; icv administration): attenuated; CNS bioavailability [7]: did not show any CNS bioavailability; Ki [5]: 840 ± 180 nM; abstinence-like signs induced by 1 in opiate-naive rats ([1]; icv administration): attenuated
"CN(C)c1cccc2c(S(=O)(=O)NCC(=O)NC(CO)C(=O)NC(CCCNC(=N)N)C(N)=O)cccc12 (stereo not drawn) [Compound 5, dansyl-Gly-Ser-Arg-NH2] (Dansyl-Gly-Ser-Arg-NH2; configuration not given here)",46,kIAM′ (IAM capacity factor) [4]: 8.0; log kIAM′ [4]: 0.90; Ki [5]: 1400 ± 500 nM; increase in binding affinity compared to 3 ([5]; ratio of Ki values): approximately 10 fold
CSCC[C@H](NS(=O)(=O)c1cccc2c(N(C)C)cccc12)C(=O)N[C@@H](CCC(=O)O)C(=O)N[C@@H](CCCNC(=N)N)C(N)=O [Dansyl-MER-amide] (Dansyl-Met-Glu-Arg-NH2),−44,
CSCC[C@H](NC(=O)[C@H](CCC(=O)O)NS(=O)(=O)c1cccc2c(N(C)C)cccc12)C(=O)N[C@@H](CCCNC(=N)N)C(N)=O [Dansyl-EMR-amide] (Dansyl-Glu-Met-Arg-NH2),17,
CN(C)c1cccc2c(S(=O)(=O)N[C@@H](CC(=O)O)C(=O)N[C@@H](CCC(=O)O)C(=O)N[C@@H](CCCNC(=N)N)C(N)=O)cccc12 [Dansyl-DER-amide] (Dansyl-Asp-Glu-Arg-NH2),−5,
CN(C)c1cccc2c(S(=O)(=O)N[C@@H](CCCCN)C(=O)N[C@@H](CCC(N)=O)C(=O)N[C@@H](CCCNC(=N)N)C(N)=O)cccc12 [Dansyl-KQR-amide] (Dansyl-Lys-Gln-Arg-NH2),38,
CC(C)[C@H](NC(=O)[C@H](CCCCN)NS(=O)(=O)c1cccc2c(N(C)C)cccc12)C(=O)N[C@@H](CCCNC(=N)N)C(N)=O [Dansyl-KVR-amide] (Dansyl-Lys-Val-Arg-NH2),20,
CC(C)[C@H](NC(=O)CNS(=O)(=O)c1cccc2c(N(C)C)cccc12)C(=O)N[C@@H](CCCNC(=N)N)C(N)=O [Dansyl-GVR-amide] (Dansyl-Gly-Val-Arg-NH2),20,
CN(C)c1cccc2c(S(=O)(=O)N[C@@H](CCC(N)=O)C(=O)N[C@@H](Cc3ccc(O)cc3)C(=O)N[C@@H](CCCNC(=N)N)C(N)=O)cccc12 [Dansyl-QYR-amide] (Dansyl-Gln-Tyr-Arg-NH2),20,
CN(C)c1cccc2c(S(=O)(=O)N[C@@H](CCCNC(=N)N)C(=O)N[C@@H](Cc3ccc(O)cc3)C(=O)N[C@@H](CCCNC(=N)N)C(N)=O)cccc12 [Dansyl-RYR-amide] (Dansyl-Arg-Tyr-Arg-NH2),6,
CN(C)c1cccc2c(S(=O)(=O)N[C@@H](Cc3ccc(O)cc3)C(=O)N[C@@H](CCCCN)C(=O)N[C@@H](CCCNC(=N)N)C(N)=O)cccc12 [Dansyl-YKR-amide] (Dansyl-Tyr-Lys-Arg-NH2),5,
CN(C)c1cccc2c(S(=O)(=O)N[C@@H](Cc3ccc(O)cc3)C(=O)N[C@@H](CO)C(=O)N[C@@H](CCCNC(=N)N)C(N)=O)cccc12 [Dansyl-YSR-amide] (Dansyl-Tyr-Ser-Arg-NH2),28,
CSCC[C@H](NC(=O)[C@H](Cc1ccc(O)cc1)NS(=O)(=O)c1cccc2c(N(C)C)cccc12)C(=O)N[C@@H](CCCNC(=N)N)C(N)=O [Dansyl-YMR-amide] (Dansyl-Tyr-Met-Arg-NH2),7,
CC(C)[C@H](NC(=O)[C@H](CCC(=O)O)NS(=O)(=O)c1cccc2c(N(C)C)cccc12)C(=O)N[C@@H](CCCNC(=N)N)C(N)=O [Dansyl-EVR-amide] (Dansyl-Glu-Val-Arg-NH2),12,
CCC(C)C(NC(=O)C(CCCCN)NS(=O)(=O)c1cccc2c(N(C)C)cccc12)C(=O)NC(CCCNC(=N)N)C(N)=O (stereo not drawn) [Dansyl-KIR-amide] (Dansyl-Lys-Ile-Arg-NH2; configuration not given here),31,
CC(C)[C@H](NC(=O)[C@H](CC(N)=O)NS(=O)(=O)c1cccc2c(N(C)C)cccc12)C(=O)N[C@@H](CCCNC(=N)N)C(N)=O [Dansyl-NVR-amide] (Dansyl-Asn-Val-Arg-NH2),8,
CN(C)c1cccc2c(S(=O)(=O)NCC(=O)N3CCC[C@H]3C(=O)N[C@@H](CCCNC(=N)N)C(N)=O)cccc12 [Dansyl-GPR-amide] (Dansyl-Gly-Pro-Arg-NH2),28,
C[C@@H](O)[C@H](NS(=O)(=O)c1cccc2c(N(C)C)cccc12)C(=O)N[C@@H](Cc1c[nH]c2ccccc12)C(=O)N[C@@H](CCCNC(=N)N)C(N)=O [Dansyl-TWR-amide] (Dansyl-Thr-Trp-Arg-NH2),0,
CN(C)c1cccc2c(S(=O)(=O)N[C@@H](CCCCN)C(=O)N[C@@H](CCC(=O)O)C(=O)N[C@@H](CCCNC(=N)N)C(N)=O)cccc12 [Dansyl-KER-amide] (Dansyl-Lys-Glu-Arg-NH2),25,
CCC(C)C(NC(=O)C(Cc1ccccc1)NS(=O)(=O)c1cccc2c(N(C)C)cccc12)C(=O)NC(CCCNC(=N)N)C(N)=O (stereo not drawn) [Dansyl-FIR-amide] (Dansyl-Phe-Ile-Arg-NH2; configuration not given here),16,
CC(C)C[C@H](NC(=O)[C@@H](NS(=O)(=O)c1cccc2c(N(C)C)cccc12)[C@@H](C)O)C(=O)N[C@@H](CCCNC(=N)N)C(N)=O [Dansyl-TLR-amide] (Dansyl-Thr-Leu-Arg-NH2),−17,
C[C@H](NC(=O)[C@H](CCC(N)=O)NS(=O)(=O)c1cccc2c(N(C)C)cccc12)C(=O)N[C@@H](CCCNC(=N)N)C(N)=O [Dansyl-QAR-amide] (Dansyl-Gln-Ala-Arg-NH2),−28,

# Source: US6960574B2, “Antagonists of RF-amide neuropeptides” (University of Florida, priority 2002, dated 2005)
